Measured values published in patent US20130324555A1, “Method of use of pharmaceutical formulations for the treatment of apicomplexan diseases in animals” (priority 2012, published 2013).
“Also recorded” adds a separate entry of the source. Like-named read-outs stand apart in the source and are kept apart here.

Assays:
[1] = tested on: P. falciparum TM90-C235; test: Malaria SYBR Green 1-Based Fluorescence (MSF) Assay, strain TM90-C235; format: cell-based; settings: for efficacy against TM90-C235 compared with D6 (cross-resistance): D6 versus TM90-C235; for IC50: Plasmodium falciparum; for C235 IC50: multi-drug resistant strain TM90-C235
Description: (§1) Compound activity against P. falciparum, the causative agent of malaria, was assessed using the Malaria SYBR Green 1-Based Fluorescence (MSF) Assay. This microtiter plate drug sensitivity assay uses the presence of malarial DNA as a measure of parasitic proliferation. The assay is a microtiter plate drug sensitivity assay that uses the presence of malarial DNA as a measure of parasitic proliferation in the presence of antimalarial drugs or experimental compounds based on modifications of previously described methods (Plouffe et al., Proc Natl Acad Sci USA. 2008, 105, 9059-9064), (Johnson et al., Antimicrob. Agents Chemother. 2005, 49, 3463-3467).
(§2) Selected compounds were examined for activity against two strains of P. falciparum: D6 (CDC/Sierra Leone), a drug-sensitive and readily killed by chloroquine, and TM90-C235, a multi-drug resistant strain resistant to chloroquine.
(§3) D6 (CDC/Sierra Leone) and TM90-C235 (WRAIR, Thailand) laboratory strains of P. falciparum were used for each drug sensitivity assessment. The parasite strains were maintained continuously in long-term cultures as previously described in Johnson et al, and P. falciparum strains in late-ring or early-trophozoite stages were cultured in predosed 384-well microtiter drug assay plates in 38 μl culture volume per well at a starting parasitemia of 0.3% and a hematocrit of 2%. Pre-dosed, sterile, 384 well black optical bottom microtiter drug plates for use in the MSF assay were produced using a Tecan EVO Freedom Liquid Handling System (Tecan US, Durham, N.C.). Dose response plates were produced at a final concentration ranging from 0.5-10000 ng/ml in quadruplicate (twelve two-fold serial dilutions of each test compound or chloroquine control in DMSO. Each run was validated by a batch control plate with chloroquine (Sigma-Aldrich Co., Catalog #C6628) at a final concentration of 2000 ng/ml. The cultures were incubated for 72 hours at 37° C., 5% CO2, 5% O2 and 90% N2. Lysis buffer (38 μl per well), consisting of 20 mM Tris HCl, 5 mM EDTA, 1.6% Triton X, 0.016% saponin, and SYBR green I dye at a 20× concentration (Invitrogen, Catalog #S-7567) was then added to the assay plates utilizing the Tecan EVO Freedom system for a final SYBR Green concentration of 10×. Plates were incubated in the dark at room temperature in the dark for 24 hours.
(§4) Compound activity was assessed by examining for the relative fluorescence units (RFU) per well using the Tecan Genios Plus (Tecan US, Inc., Durham, N.C.). GraphPad Prism (GraphPad Software Inc., San Diego, Calif.) using the nonlinear regression (sigmoidal dose-response/variable slope) equation was used to determine IC50 values.

[2] = tested on: THdhxgTRP tachyzoites transfected with pLK47; test: Insertional mutagenesis experiments (selection of resistant mutants); format: cell-based, T. gondii; settings: prolonged incubation (six weeks)
Description: Insertional mutagenesis experiments were performed.
THdhxgTRP tachyzoites were transfected with pLK47 vector plasmid. Parasites were extracted from HFF cells and resuspended in 1 mL cytomix electroporation buffer solution (120 mM KCl, 150 uM CaCl2, 5 mM K2HPO4, 5 mM KH2PO4, 25 mM HEPES, 2 mM EDTA and 5 mM MgCl2 in sterile H2O). Equivalent amounts of plasmid DNA and cytomix solution containing 10×10^7 parasites were combined for a total volume of 400 uL and electroporated using BioRad electroporator at 1.5 k, […] and 100Ω. […] Successfully transfected parasites were selected by month-long treatment with mycophenolic acid (25 ug/mL) and xanthine (50 ug/mL). After one month, the mixed mutant population were exposed to 3i, 3j, 7a or 14b to select for those mutants whose gene disruption conferred resistance to the drug.

[3] = tested on: RH-YFP tachyzoites; test: Determination of static or cidal effects; format: cell-based, T. gondii; settings: compound at 1 μM; for static or cidal effect: growth assessed at days 11, 17, 25
Description: In order to determine whether leading compounds in this study inhibited parasite proliferation by either a cidal or static mechanism, four were selected (3i, 3j, 7a, and 14a) and applied at four to eight times MICs50 to parasites. In this assay, RH-YFP tachyzoites were treated with each compound at 1 μM under various dosing conditions:
Condition A: Parasites were treated for four days, then compound was removed
Condition B: Parasites were treated for ten days, then compound was removed
Condition C: Compound was refreshed at four days then removed at ten days
Condition D: Compound was maintained for the duration of the experiment
The four and ten day time points were taken to reveal the impact of extended exposure of the parasites to the test substance. Compounds were refreshed at four days to examine whether compound degradation could contribute to an observed static effect. Parasite growth was assessed at days 11, 17, and 25. The growth data, as a function of ^3H-uracil uptake, is expressed in FIG. 7. 4 days, Condition A; 10 days, renewed at 4, Condition B; 10 days, Condition C; All time, Condition D. Ordinate: Counts per minute.
RH-YFP tachyzoites were treated with each compound at 1 μM under one of four conditions: a) parasites were treated for four days, then compound was removed; b) parasites were treated for ten days, then compound was removed; c) compound was refreshed at four days and removed at ten; or d) compound was maintained for the duration of the experiment. The four and ten day time points were taken to reveal the impact of extended exposure of the parasites to the test substance. Compounds were refreshed at four days to examine whether compound degradation could contribute to an observed static effect. Parasite growth was assessed at 11, 17, and 25 days.

[4] = tested on: P. falciparum D6 (CDC/Sierra Leone); test: Malaria SYBR Green 1-Based Fluorescence (MSF) Assay, strain D6; format: cell-based; settings: for IC50: Plasmodium falciparum
Description: as §1, §2, §3, §4

[5] = TM90, multi-drug resistant strain TM90-C235, read-out: C235 IC50
[6] = D6, chloroquine-sensitive strain D6, read-out: D6 IC50
[7] = D6, chloroquine-sensitive strain D6, read-out: D6 IC50 (molar)
[8] = chloroquine-sensitive strain D6

Structure (SMILES): CC(C)(C)c1cccc(NC(=O)c2cc(Cl)ccc2O)c1 [Compound 3i, N-(3-tert-butylphenyl)-5-chloro-2-hydroxybenzamide]
- efficacy against TM90-C235 compared with D6 (cross-resistance) [1]: two-fold higher IC50
- IC50 [1, 5]: > 2 µg/mL
- C235 IC50 [1]: >2 µg/mL
- parasite growth of mixed mutant population in the presence of compound [2]: No parasite growth was observed; also recorded: No parasite growth was noted
- static or cidal effect [3]: parasitostatic; also recorded: static effect
- IC50 [4, 6]: 0.957 µg/mL
- IC50 [4, 7]: 3000 nM
- D6 IC50 [4, 8]: 0.9569 µg/mL

Structure (SMILES): O=C(Nc1cc(C(F)(F)F)cc(C(F)(F)F)c1)c1cc(Cl)ccc1O [Compound 3j]
- efficacy against TM90-C235 compared with D6 (cross-resistance) [1]: equally effective
- IC50 ([1]; TM90, read-out: C235 IC50): 0.541 µg/mL
- parasite growth of mixed mutant population in the presence of compound [2]: No parasite growth was observed; also recorded: No parasite growth was noted
- duration of treatment after which a cidal effect was shown [3]: four days
- static or cidal effect [3]: parasitocidal; also recorded: cidal
- IC50 ([4]; chloroquine-sensitive strain D6, read-out: D6 IC50): 0.593 µg/mL

Structure (SMILES): O=C(Oc1ccc(Cl)cc1C(=O)Nc1ccc([N+](=O)[O-])cc1Cl)c1ccccc1 [Compound 7a, 4-chloro-2-((2-chloro-4-nitrophenyl)carbamoyl)phenyl benzoate]
- efficacy against TM90-C235 compared with D6 (cross-resistance) [1]: equally effective
- IC50 ([1]; TM90, chloroquine resistant strain TM90-C235, read-out: TM90-C235 IC50): 600 nM
- IC50 [1, 5]: 0.267 µg/mL
- C235 IC50 [1]: 0.2666 µg/mL
- parasite growth of mixed mutant population in the presence of compound [2]: No parasite growth was observed; also recorded: No parasite growth was noted
- duration of treatment after which a cidal effect was shown [3]: four days
- static or cidal effect [3]: parasitocidal; also recorded: cidal
- IC50 [4, 6]: 0.295 µg/mL
- IC50 [4, 7]: 700 nM
- D6 IC50 [4, 8]: 0.2946 µg/mL

Structure (SMILES): CN(CC(=O)NN)C(=O)Oc1ccc(Cl)cc1C(=O)Nc1ccc([N+](=O)[O-])cc1Cl.Cl [Compound 14a, 4-chloro-2-((2-chloro-4-nitrophenyl)carbamoyl)phenyl (2-hydrazinyl-2-oxoethyl)(methyl)carbamate hydrochloride]
- efficacy against TM90-C235 compared with D6 (cross-resistance) [1]: equally effective
- IC50 ([1]; TM90, read-out: C235 IC50): 1.32 µg/mL
- duration of treatment after which a cidal effect was shown [3]: ten days
- static or cidal effect [3]: cidal
- IC50 ([4]; D6, read-out: D6 IC50): 1.33 µg/mL

Structure (SMILES): CN(CC(=O)NN)C(=O)Oc1ccc(Cl)cc1C(=O)Nc1ccc(C(F)(F)F)cc1C(F)(F)F.Cl [Compound 14b, 2-((2,4-bis(trifluoromethyl)phenyl)carbamoyl)-4-chlorophenyl (2-hydrazinyl-2-oxoethyl)(methyl)carbamate hydrochloride]
- parasite growth of mixed mutant population in the presence of compound ([2]; hydrochloride): No parasite growth was observed; also recorded: No parasite growth was noted
